This note sets out measurements from paper PMC4725968 (Scientific Reports, 2016).

The target in one data set is T1, DERACP (Colwellia psychrerythraea, UniProt Q483R4).
T1 construct: gene deoC; synthetic deoC gene in pET21a, C-terminal 6xHis tag; E. coli BL21(DE3); NiNTA; dimer
T1 sequence (Q483R4 1-257): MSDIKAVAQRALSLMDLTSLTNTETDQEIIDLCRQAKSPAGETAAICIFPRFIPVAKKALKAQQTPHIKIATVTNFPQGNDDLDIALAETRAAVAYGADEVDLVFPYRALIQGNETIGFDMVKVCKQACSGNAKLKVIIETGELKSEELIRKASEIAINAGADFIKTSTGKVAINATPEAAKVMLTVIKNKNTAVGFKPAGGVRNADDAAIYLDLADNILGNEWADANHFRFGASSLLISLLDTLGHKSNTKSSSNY
The data set is described as follows: steady-state kinetics, coupled GDH/TPI assay, NADH at […] nm. It counts as biochemical. The conditions noted are these: retro-aldol cleavage; 25 °C.

Another data set concerns the target T2, DERAEC (Escherichia coli, UniProt P0A6L0).
T2 construct: gene deoC; deoC isolated previously; E. coli BL21(DE3); NiNTA purification; dimer
T2 sequence (P0A6L0 1-259): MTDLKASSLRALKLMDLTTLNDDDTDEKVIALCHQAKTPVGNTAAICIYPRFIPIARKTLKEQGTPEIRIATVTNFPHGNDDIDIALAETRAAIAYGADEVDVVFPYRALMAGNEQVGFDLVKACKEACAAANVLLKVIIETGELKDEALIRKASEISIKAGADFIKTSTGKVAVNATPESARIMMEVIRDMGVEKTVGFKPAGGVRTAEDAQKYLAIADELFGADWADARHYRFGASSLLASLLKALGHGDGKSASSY
The description is as above. The conditions noted are these: retro-aldol cleavage; 25 °C. It is filed as biochemical.

A further data set addresses T3, DERAPA (Pyrobaculum aerophilum, UniProt Q8ZXK7).
T3 construct: gene deoC; synthetic deoC gene in pET21a, C-terminal 6xHis tag; E. coli BL21(DE3); NiNTA; dimer
T3 sequence (Q8ZXK7 1-226): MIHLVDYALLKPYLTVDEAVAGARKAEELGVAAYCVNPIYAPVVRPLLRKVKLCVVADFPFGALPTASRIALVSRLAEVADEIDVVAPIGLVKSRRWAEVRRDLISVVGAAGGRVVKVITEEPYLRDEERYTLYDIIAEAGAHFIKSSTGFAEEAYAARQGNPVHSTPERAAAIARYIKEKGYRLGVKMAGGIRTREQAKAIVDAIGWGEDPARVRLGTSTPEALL
The description is as above. It is filed as biochemical. As to conditions: retro-aldol cleavage; 25 °C.

A further data set deals with T4, DERASH (Shewanella halifaxensis, UniProt B0TQ91).
T4 construct: gene deoC; deoC isolated from genomic DNA; E. coli BL21(DE3); NiNTA purification; dimer
The description is as above. It counts as biochemical. As to conditions: retro-aldol cleavage; 25 °C.

The next data set addresses T5, DERATM (Thermotoga maritima, UniProt Q9X1P5).
T5 construct: gene deoC; synthetic deoC gene in pET21a, C-terminal 6xHis tag; E. coli BL21(DE3); NiNTA; dimer
T5 sequence (Q9X1P5 1-248): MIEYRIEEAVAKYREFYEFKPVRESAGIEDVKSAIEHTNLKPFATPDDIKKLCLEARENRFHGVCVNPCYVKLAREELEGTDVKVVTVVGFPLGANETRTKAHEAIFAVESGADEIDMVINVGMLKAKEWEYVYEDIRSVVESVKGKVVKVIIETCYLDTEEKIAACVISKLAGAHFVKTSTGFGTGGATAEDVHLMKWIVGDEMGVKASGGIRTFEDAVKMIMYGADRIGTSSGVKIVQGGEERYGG
Described as above. It is filed as biochemical. As to conditions: retro-aldol cleavage; 25 °C.

Data set [1] concerns the molecule itself. As to the kind of experiment: SEC; Superdex 200 10/300 GL, 100 mM KPi, 150 mM NaCl (pH 7); 1-5 mg protein loaded; calibrated with five protein standards between 12.5 and 200 kDa; hydrodynamic size. (Size exclusion chromatography separates by hydrodynamic size, large species first.)
Data set [2] concerns the molecule itself. The data set is described as follows: cross-linking; engineered intermolecular disulfide (A95C) across the dimer interface; oxidised against reduced mutant on SDS-PAGE under non-reducing conditions.
Data set [3] deals with the molecule itself. The data set is described as follows: crystal structure; sitting-drop vapour diffusion at 20 °C; data at 100 K; DERACP tetragonal (P4(1)2(1)2, two chains per asymmetric unit) and hexagonal (P6(1)22, four chains) forms, DERASH (C2, four chains).

T4 sequence (B0TQ91 whole entry): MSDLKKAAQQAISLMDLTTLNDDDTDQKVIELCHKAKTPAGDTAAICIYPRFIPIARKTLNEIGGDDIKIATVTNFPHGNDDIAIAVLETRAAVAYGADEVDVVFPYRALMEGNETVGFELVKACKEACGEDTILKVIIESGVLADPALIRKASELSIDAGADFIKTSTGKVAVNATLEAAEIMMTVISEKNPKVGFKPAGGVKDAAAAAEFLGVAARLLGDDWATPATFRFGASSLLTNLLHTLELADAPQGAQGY

In the case of `O=P(O)(O)OC[C@H]1OC(O)C[C@@H]1O` (stereo partly drawn) [2-deoxy-D-ribose-5-phosphate], the KM result at DERACP is “Both KM and kcat values decrease with increasing optimal growth temperature of the organism”; at DERAEC it was “Both KM and kcat values decrease with increasing optimal growth temperature of the organism”; on DERAPA it was “Both KM and kcat values decrease with increasing optimal growth temperature of the organism”; on DERASH it was “Both KM and kcat values decrease with increasing optimal growth temperature of the organism”; at DERATM, “Both KM and kcat values decrease with increasing optimal growth temperature of the organism”.

B1: 2-deoxy-D-ribose-5-phosphate aldolase (DERA) from Pyrobaculum aerophilum, wild type (enzyme)
chain: MIHLVDYALLKPYLTVDEAVAGARKAEELGVAAYCVNPIYAPVVRPLLRKVKLCVVADFPFGALPTASRIALVSRLAEVADEIDVVAPIGLVKSRRWAEVRRDLISVVGAAGGRVVKVITEEPYLRDEERYTLYDIIAEAGAHFIKSSTGFAEEAYAARQGNPVHSTPERAAAIARYIKEKGYRLGVKMAGGIRTREQAKAIVDAIGWGEDPARVRLGTSTPEALL
notes: 2-deoxy-D-ribose-5-phosphate aldolase (DERA, deoC gene) of Pyrobaculum aerophilum; gene synthesised by GenScript, in pET21a; also called DERAPA; hyperthermophilic DERA; source: E. coli BL21(DE3), purified (Ni-NTA)
Usually stoichiometry N stands for the number of molecules, sites or subunits per partner or assembly. Regarding B1, the “stoichiometry N” value in data set [1] amounted to 2.

B2: 2-deoxy-D-ribose-5-phosphate aldolase (DERA) from Thermotoga maritima, wild type (enzyme)
chain: MIEYRIEEAVAKYREFYEFKPVRESAGIEDVKSAIEHTNLKPFATPDDIKKLCLEARENRFHGVCVNPCYVKLAREELEGTDVKVVTVVGFPLGANETRTKAHEAIFAVESGADEIDMVINVGMLKAKEWEYVYEDIRSVVESVKGKVVKVIIETCYLDTEEKIAACVISKLAGAHFVKTSTGFGTGGATAEDVHLMKWIVGDEMGVKASGGIRTFEDAVKMIMYGADRIGTSSGVKIVQGGEERYGG
notes: 2-deoxy-D-ribose-5-phosphate aldolase (DERA, deoC gene) of Thermotoga maritima; gene synthesised by GenScript, in pET21a; also called DERATM; hyperthermophilic DERA; source: E. coli BL21(DE3), purified (Ni-NTA)
As for B2, the “stoichiometry N” value in data set [1] was found to be 2.

B3: A95C mutant of DERA from Escherichia coli (enzyme)
chain: MTDLKASSLRALKLMDLTTLNDDDTDEKVIALCHQAKTPVGNTAAICIYPRFIPIARKTLKEQGTPEIRIATVTNFPHGNDDIDIALAETRAAICYGADEVDVVFPYRALMAGNEQVGFDLVKACKEACAAANVLLKVIIETGELKDEALIRKASEISIKAGADFIKTSTGKVAVNATPESARIMMEVIRDMGVEKTVGFKPAGGVRTAEDAQKYLAIADELFGADWADARHYRFGASSLLASLLKALGHGDGKSASSY
modifications: intermolecular disulfide bridge C95-C95 in the oxidised form
notes: DERA (deoC gene) of Escherichia coli with the mutation A95C; also called DERAEC A95C; source: E. coli BL21(DE3), purified (Ni-NTA)
Turning to B3, the binding result in data set [2] is recorded as “binds”.

B4: 2-deoxy-D-ribose-5-phosphate aldolase (DERA) from Colwellia psychrerythraea, wild type (enzyme, UniProt Q483R4 1-257, looked up)
chain: MSDIKAVAQRALSLMDLTSLTNTETDQEIIDLCRQAKSPAGETAAICIFPRFIPVAKKALKAQQTPHIKIATVTNFPQGNDDLDIALAETRAAVAYGADEVDLVFPYRALIQGNETIGFDMVKVCKQACSGNAKLKVIIETGELKSEELIRKASEIAINAGADFIKTSTGKVAINATPEAAKVMLTVIKNKNTAVGFKPAGGVRNADDAAIYLDLADNILGNEWADANHFRFGASSLLISLLDTLGHKSNTKSSSNY
notes: 2-deoxy-D-ribose-5-phosphate aldolase (DERA, deoC gene) of Colwellia psychrerythraea; gene synthesised by GenScript, in pET21a; also called DERACP; psychrophilic DERA; source: E. coli BL21(DE3), purified (Ni-NTA, SEC)
Turning to B4, the “stoichiometry N” value in data set [3] amounted to 2.
